Test results: publication PMC11224556, “Next-generation of BBQ analogues that selectively target breast cancer” (Frontiers in Chemistry, 2024)
Like-named read-outs stand apart in the source and are kept apart here.

Key:
Format in all cases: cell-based, human
[1] = test system: broad panel of cancer cell lines and non-cancer breast cell line MCF10A; assay: MTT growth inhibition: GI50 ranges and selectivity across the cell line panel
Text: (§1) Each BBQ analogue, 2-14 was screened for their growth inhibition ability (GI50) in a broad panel of cancer cell lines and a non-cancer breast cell line (MCF10A), using the MTT growth inhibition assay (Table 1) ([Baker et al., 2021b]). The cancer panel comprised HT29 (colorectal), U87 (brain), SJ-G2 (brain), A2780 (ovary), Du145 (prostate), BE2-C (neuronal), MIA (pancreas), H460 (lung, ER+), A431 (vulva, ER+ (estrogen receptor positive)), and a wide selection of breast cancer cell lines with varying receptor status including MCF-7 (ER + luminal A), T47D (ER/PR+ (progesterone receptor positive)luminal A), ZR-75-1 (ER/PR + luminal A), BT-474 (ER/PR/HER2+ luminal B), SKBR-3 (HER2+), MDA-MB-468, BT20, and MDA-MB-231 (basal, triple negative (TN) for ER, PR, and HER2).
(§2) Stock solutions were prepared as follows and stored as 20 mM DMSO solutions at −20 °C. All cell lines were cultured in a humidified atmosphere 5% CO2 at 37 °C. The cancer cell lines were maintained in Dulbecco’s modified Eagle’s medium (DMEM) (Trace Biosciences, Australia) supplemented with 10% foetal bovine serum (FBS), 10 mM sodium bicarbonate, penicillin (100 IU/mL), streptomycin (100 μg/mL), and glutamine (4 mM). The non-cancer MCF10A cell line was cultured in DMEM:F12 (1:1) cell culture media, 5% heat inactivated horse serum, supplemented with penicillin (50 IU/mL), streptomycin (50 μg/mL), 20 mM Hepes, L-glutamine (2 mM), epidermal growth factor (20 ng/mL), hydrocortisone (500 ng/mL), cholera toxin (100 ng/mL), and insulin (10 μg/mL). The AhR reporter cell line HT29-Lucia™ (Invivogen, United States) was maintained in DMEM supplemented with 10% heat inactivated FBS, L-glutamine (2 mM), penicillin (100 IU/mL), streptomycin (100 μg/mL), 100 μg/mL Normocin™, and 100 μg/mL of the selective antibiotic Zeocin™. All cell lines were purchased from the American Type Culture Collection (ATCC), except for A2780 and A431 which were from the European Collection of Authenticated Cell Cultures (ECACC), and SJ-G2 cell line which was from Dr Mary Danks, St Jude Children’s Research hospital, Memphis, TN.
(§3) Cells in logarithmic growth were transferred to 96-well plates. Cytotoxicity was determined by plating cells in duplicate in 100 μL medium at a density of 2,500–4,000 cells/well in 96 well plates. On day 0, (24 h after plating) when the cells were in logarithmic growth 100 μL medium with or without the test agent was added to each well. After 72 h drug exposure growth inhibitory effects were evaluated using the MTT (3-[4,5-dimethylthiazol-2-yl]-2,5-diphenyltetrazolium bromide) assay with absorbance read at 540 nm. An eight-point dose response curve was produced, using MS Excel software. From these dose-response curves, the GI50 value was calculated, representing the drug concentration at which cell growth is 50% inhibited based on the difference between the optical density values on day 0 and those at the end of drug exposure ([Bradshaw et al., 2008]; [Zhang et al., 2009]). Each data point was conducted in duplicate and the mean ± S.E.M. calculated from four to five replicates (n = 4 or 5), which were performed on separate occasions and separate cell line passages. Where shown, significant test results were determined using T-test analysis at p < 0.01 and p < 0.05 with a two tail distribution.

[2] = test system: BT474 breast cancer cells; assay: MTT growth inhibition assay (72 h)
Text: as §1, §2, §3

[3] = test system: Du145 (prostate) cells; assay: MTT growth inhibition assay (72 h)
Text: as §1, §2, §3

[4] = test system: MCF10A normal breast cells; assay: MTT growth inhibition assay (72 h)
Text: as §1, §2, §3

[5] = test system: BE2-C (neuronal) cells; assay: MTT growth inhibition assay (72 h); conditions: Neuron
Text: as §1, §2, §3

[6] = test system: ZR-75-1 breast cancer cells; assay: MTT growth inhibition assay (72 h); conditions: ZR-75-1, Breast (ER/PR)
Text: as §1, §2, §3

[7] = test system: HT29 (colorectal) cells; assay: MTT growth inhibition assay (72 h)
Text: as §1, §2, §3

[8] = test system: A431 (vulva/skin) cells; assay: MTT growth inhibition assay (72 h)
Text: as §1, §2, §3

[9] = test system: MDA-MB-468 breast cancer cells; assay: MTT growth inhibition assay (72 h); conditions: MDA-MB-468, Breast (TN)
Text: as §1, §2, §3

[10] = test system: MCF-7 breast cancer cells; assay: MTT growth inhibition assay (72 h)
Text: as §1, §2, §3

[11] = test system: T47D breast cancer cells; assay: MTT growth inhibition assay (72 h); conditions: Breast (ER/PR)
Text: as §1, §2, §3

[12] = test system: MIA (pancreas) cells; assay: MTT growth inhibition assay (72 h)
Text: as §1, §2, §3

[13] = test system: H460 (lung) cells; assay: MTT growth inhibition assay (72 h)
Text: as §1, §2, §3

[14] = test system: A2780 (ovary) cells; assay: MTT growth inhibition assay (72 h)
Text: as §1, §2, §3

[15] = test system: SKBR3 breast cancer cells; assay: MTT growth inhibition assay (72 h)
Text: as §1, §2, §3

[16] = test system: BT20 breast cancer cells; assay: MTT growth inhibition assay (72 h)
Text: as §1, §2, §3

[17] = test system: U87 (brain) cells; assay: MTT growth inhibition assay (72 h); conditions: U87, Brain (GBM)
Text: as §1, §2, §3

[18] = test system: SJ-G2 (brain) cells; assay: MTT growth inhibition assay (72 h); conditions: SJ-G2, Brain (GBM)
Text: as §1, §2, §3

[19] = test system: MDA-MB-231 breast cancer cells; assay: MTT growth inhibition assay (72 h); conditions: MDA-MB-231, Breast (TN)
Text: as §1, §2, §3

[20] = Homo sapiens, BT-474, BT474, Breast (ER/PR/HER2)
[21] = Homo sapiens, HT-29, HT29, Colon
[22] = Homo sapiens, A-431, A431, Skin (ER)
[23] = Homo sapiens, MCF7, MCF-7, Breast (ER)
[24] = Homo sapiens, NCI-H460, H460, Lung (ER)
[25] = Homo sapiens, SK-BR-3, SKBR3, Breast (HER2)
[26] = Homo sapiens, BT-20, BT20, Breast (TN)

## 3-Chloro-7H-benzo[de]benzo[4,5]imidazo[2,1-a]isoquinolin-7-one (10a) and 4-chloro-7H-benzo[de]benzo[4,5]imidazo[2,1-a]isoquinolin-7-one (10b) [Compound 10]
[1]; A431, MCF-7, T47D, ZR-75-1, SKBR-3, MDA-MB-468, BT20, BT474 vs MCF10A
  selectivity relative to the normal cell line (fold, range over cell lines): 7.5 to 750 fold
[1]; MCF-7, T47D, ZR-75-1, SKBR-3, MDA-MB-468, BT20, BT474, read-out: GI50 (range over cell lines)
  GI50: 0.0056 to 0.56 µM
[1]; across the cell lines examined (Table 1)
  fold more potent than head group substituted analogues 3, 4, 6, 7, 8 and 9: > 10 fold
[2]; BT474, Breast (ER/PR/HER2)
  GI50: 0.56 ± 0.42 µM
[3]
  GI50: > 50 µM
[4]
  GI50: 4.2 ± 0.38 µM
[5]
  GI50: 7 ± 0.23 µM
[6]
  GI50: 0.072 ± 0.03 µM
[7]; HT29, Colon
  GI50: 2.9 ± 0.18 µM
[8]; A431, Skin (ER)
  GI50: 0.15 ± 0.036 µM
[9]
  GI50: 0.0056 ± 0.0017 µM
[10]; MCF-7, Breast (ER)
  GI50: 0.14 ± 0.045 µM
[11]
  GI50: 0.18 ± 0.019 µM
[12]
  GI50: 9.8 ± 3.1 µM
[13]; H460, Lung (ER)
  GI50: 5.7 ± 1.48 µM
[14]
  GI50: 4.6 ± 0.25 µM
[15]; SKBR3, Breast (HER2)
  GI50: 0.061 ± 0.024 µM
[16]; BT20, Breast (TN)
  GI50: 0.27 ± 0.12 µM
[17]
  GI50: 37 ± 5.8 µM
[18]
  GI50: 4.8 ± 0.44 µM
[19]
  GI50: 29 ± 10.3 µM

## O=c1c2ccccc2cc2[nH]c3ccccc3n12 [Compound 12, Benzo[4,5]imidazo[1,2-b]isoquinolin-11(5H)-one]
[2]; [20]
  GI50: > 50 µM
[3]; Homo sapiens, DU-145
  GI50: > 50 µM
[4]; Homo sapiens, MCF-10A
  GI50: 0.54 ± 0.07 µM
[5]; Homo sapiens, BE(2)-C
  GI50: 0.24 ± 0.079 µM
[6]; Homo sapiens
  GI50: 0.17 ± 0.023 µM
[7]; [21]
  GI50: 0.21 ± 0.056 µM
[8]; [22]
  GI50: 0.48 ± 0.1 µM
[9]; Homo sapiens
  GI50: 0.141 ± 0.074 µM
[10]; [23]
  GI50: 0.12 ± 0.05 µM
[11]; Homo sapiens
  GI50: 0.164 ± 0.083 µM
[12]; Homo sapiens
  GI50: 0.62 ± 0.16 µM
[13]; [24]
  GI50: > 50 µM
[14]; Homo sapiens
  GI50: 3 ± 2.1 µM
[15]; [25]
  GI50: 0.2 ± 0.071 µM
[16]; [26]
  GI50: 0.16 ± 0.048 µM
[17]; Homo sapiens
  GI50: > 50 µM
[18]; Homo sapiens
  GI50: 43 ± 10.3 µM
[19]; Homo sapiens
  GI50: > 50 µM

## 7-Oxo-7H-benzo[de]benzo[4,5]imidazo[2,1-a]isoquinoline-10-carbonitrile (9a) and 7-oxo-7H-benzo[de]benzo[4,5]imidazo[2,1-a]isoquinoline-11-carbonitrile (9b) [Compound 9]
[2]; BT474, Breast (ER/PR/HER2)
  GI50: > 50 µM
[3]
  GI50: 45 ± 1.7 µM
[4]
  GI50: 7.8 ± 1.62 µM
[5]
  GI50: > 50 µM
[6]
  GI50: 0.089 ± 0.04 µM
[7]; HT29, Colon
  GI50: 44 ± 6.3 µM
[8]; A431, Skin (ER)
  GI50: 1.1 ± 0.1 µM
[9]
  GI50: 0.074 ± 0.021 µM
[10]; MCF-7, Breast (ER)
  GI50: 25 ± 8.3 µM
[11]
  GI50: 4.2 ± 0.73 µM
[12]
  GI50: 41 ± 9.5 µM
[13]; H460, Lung (ER)
  GI50: 41 ± 5.9 µM
[14]
  GI50: 7 ± 0.64 µM
[15]; SKBR3, Breast (HER2)
  GI50: 0.27 ± 0.018 µM
[16]; BT20, Breast (TN)
  GI50: 9.3 ± 8.4 µM
[17]
  GI50: 43 ± 4 µM
[18]
  GI50: 26 ± 3.8 µM
[19]
  GI50: 38 ± 6 µM

## 10-Methyl-7H-benzo[de]benzo[4,5]imidazo[2,1-a]isoquinolin-7-one (7a) and 11-methyl-7H-benzo[de]benzo[4,5]imidazo[2,1-a]isoquinolin-7-one (7b) [Compound 7]
[2]; BT474, Breast (ER/PR/HER2)
  GI50: > 50 µM
[3]
  GI50: 37 ± 7.8 µM
[4]
  GI50: 4.7 ± 0.12 µM
[5]
  GI50: 4.9 ± 0.09 µM
[6]
  GI50: 0.19 ± 0.045 µM
[7]; HT29, Colon
  GI50: 5 ± 0.07 µM
[8]; A431, Skin (ER)
  GI50: 4.8 ± 0.7 µM
[9]
  GI50: 0.35 ± 0.13 µM
[10]; MCF-7, Breast (ER)
  GI50: 3.6 ± 0.4 µM
[11]
  GI50: 3.1 ± 0.17 µM
[12]
  GI50: 8.1 ± 0.97 µM
[13]; H460, Lung (ER)
  GI50: 45 ± 8 µM
[14]
  GI50: 5.2 ± 0.63 µM
[15]; SKBR3, Breast (HER2)
  GI50: 1.2 ± 0.93 µM
[16]; BT20, Breast (TN)
  GI50: 5.2 ± 2 µM
[17]
  GI50: 17 ± 2.7 µM
[18]
  GI50: > 50 µM
[19]
  GI50: 25 ± 7.1 µM

## O=c1c2cccc3cccc(c32)c2nc3cc(Cl)ccc3n12 [Compound 4, 11-Chloro-7H-benzo[de]benzo[4,5]imidazo[2,1-a]isoquinolin-7-one]
[1]; Homo sapiens, read-out: GI50 (range over cell lines and both compounds 3 and 4), ZR-75-1, SKBR3 and MDA-MB-468
  GI50: 0.26 to 0.88 µM
[1]; SKBR3 vs MCF10A
  greatest difference between growth inhibition in breast cancer cells and normal breast cells (fold): 16 fold
[2]; [20]
  GI50: > 50 µM
[3]; Homo sapiens, DU-145
  GI50: 12 ± 0.33 µM
[4]; Homo sapiens, MCF-10A
  GI50: 4.1 ± 0.2 µM
[5]; Homo sapiens, BE(2)-C
  GI50: 10 ± 1.7 µM
[6]; Homo sapiens
  GI50: 0.81 ± 0.43 µM
[7]; [21]
  GI50: 18 ± 3.2 µM
[8]; [22]
  GI50: 10 ± 2 µM
[9]; Homo sapiens
  GI50: 0.88 ± 0.17 µM
[10]; [23]
  GI50: 5.3 ± 0.39 µM
[11]; Homo sapiens
  GI50: 8.6 ± 2.2 µM
[12]; Homo sapiens
  GI50: 31 ± 3.3 µM
[13]; [24]
  GI50: 8.2 ± 1.92 µM
[14]; Homo sapiens
  GI50: 6 ± 0.32 µM
[15]; [25]
  GI50: 0.26 ± 0.07 µM
[16]; [26]
  GI50: 28 ± 3 µM
[17]; Homo sapiens
  GI50: 18 ± 1.8 µM
[18]; Homo sapiens
  GI50: 8.8 ± 1.1 µM
[19]; Homo sapiens
  GI50: 9 ± 1 µM
